pEC50: −log10 of the molar value. Values after ≈ are worked out from the molar mass of the structure shown.
Columns and labels:
[1] = Aqueous solubility of the compound; type: physicochemical
[2] = Lipophilicity, log D of the compound; type: physicochemical; conditions: octanol/water
Thrombopoietin receptor = molecular target: T1, Thrombopoietin receptor (Homo sapiens, UniProt P40238); assay: Agonist activity at human thrombopoietin receptor transfected in mouse BAF3 cells assessed as stimulation of beta lactamase activity incubated in dark up to 1 hr; type: functional, cell-based
T1 sequence (P40238 whole entry): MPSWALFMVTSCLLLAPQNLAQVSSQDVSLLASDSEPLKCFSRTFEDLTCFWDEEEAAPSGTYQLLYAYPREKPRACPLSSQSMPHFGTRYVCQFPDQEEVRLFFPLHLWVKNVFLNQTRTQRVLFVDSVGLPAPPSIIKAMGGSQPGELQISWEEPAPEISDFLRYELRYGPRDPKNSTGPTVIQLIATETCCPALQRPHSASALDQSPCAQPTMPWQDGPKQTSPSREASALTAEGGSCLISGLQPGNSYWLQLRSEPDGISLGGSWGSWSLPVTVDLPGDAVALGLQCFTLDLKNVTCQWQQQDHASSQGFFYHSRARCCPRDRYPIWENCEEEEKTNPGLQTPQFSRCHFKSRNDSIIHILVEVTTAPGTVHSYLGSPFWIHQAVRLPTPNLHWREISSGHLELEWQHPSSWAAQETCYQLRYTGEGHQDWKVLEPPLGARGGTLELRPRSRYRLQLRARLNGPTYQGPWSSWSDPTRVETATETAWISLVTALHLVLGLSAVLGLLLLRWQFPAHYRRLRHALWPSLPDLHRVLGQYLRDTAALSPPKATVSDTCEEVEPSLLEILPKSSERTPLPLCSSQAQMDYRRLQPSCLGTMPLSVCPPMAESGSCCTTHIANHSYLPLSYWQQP

[3] = Half life in rat at 5 mg/kg, po; type: ADME, organism-based; set-up: dose 5 mg/kg, route oral; conditions: in vivo
[4] = Plasma clearance in rat at 5 mg/kg, po; type: ADME, organism-based; set-up: dose 5 mg/kg, route oral
[5] = Bioavailability in rat at 5 mg/kg, po; type: ADME, organism-based; conditions: in vivo
Rattus norvegicus = assay: Volume of distribution at steady state in rat at 5 mg/kg, po; type: ADME, organism-based; set-up: dose 5 mg/kg, route oral; conditions: in vivo
[6] = Half life in dog at 5 mg/kg, po; type: ADME, organism-based, Canis lupus familiaris; set-up: dose 5 mg/kg, route oral; conditions: in vivo
Canis familiaris = assay: Volume of distribution at steady state in dog at 5 mg/kg, po; type: ADME, organism-based, Canis lupus familiaris; set-up: dose 5 mg/kg, route oral; conditions: in vivo
[7] = Plasma clearance in dog at 5 mg/kg, po; type: ADME, organism-based, Canis lupus familiaris; set-up: dose 5 mg/kg, route oral
[8] = Bioavailability in dog at 5 mg/kg, po; type: ADME, organism-based, Canis lupus familiaris; conditions: in vivo
[9] = Oral bioavailability in rat; type: ADME, organism-based; conditions: in vivo
[10] = Clearance in iv dosed rat; type: ADME, organism-based; conditions: in vivo
[11] = Permeability across human Caco-2 cell membrane; type: ADME, cell-based; conditions: read-out: permeability
[12] = Protein binding in human plasma; type: ADME, cell-free; conditions: read-out: PPB
[13] = Protein binding in rat plasma; type: ADME, cell-free; conditions: read-out: PPB
[14] = Protein binding in mouse plasma; type: ADME, cell-free; conditions: read-out: PPB
[15] = Protein binding in dog plasma; type: ADME, cell-free, Canis lupus familiaris; conditions: read-out: PPB
[16] = aqueous medium, read-out: solubility

Structure (SMILES) | solubility [1, 16] [µg/mL] | logD [2] | pEC50 (Thrombopoietin receptor) | other results
O=C(Nc1nc(-c2cccc(OC(F)(F)F)c2F)cs1)c1ccc(Nc2cc(N3CC(O)C3)ncn2)cc1 | < 1 | 4.61 | – | –
O=C(Nc1nc(-c2cccc(C(F)(F)F)c2F)cs1)c1cnc(N2CCCCC2)c(Cl)c1 | < 10 | 7.1 | < 5.00 | –
COc1cc(C(=O)Nc2nc(-c3cccc(C(F)(F)F)c3F)cs2)cnc1N1CCC(C(=O)O)CC1 | < 10 | – | < 6.00 | –
C[C@H]1CN(c2ncc(C(=O)Nc3nc(-c4cccc(C(F)(F)F)c4F)cs3)cc2Cl)CC1C(=O)O (some centres undefined) | < 10 | 2.79 | 7.37 | –
CC1=NN(c2ccc(C)c(C)c2)C(=O)/C1=N\Nc1cccc(-c2cccc(C(=O)[O-])c2)c1O.[Na+] | – | – | – | half-life [3]: 1.34 h; CL/F [4]: 6.87 mL/min/kg; bioavailability [5]: 66.8%; Vdss (Rattus norvegicus): 0.831 L/kg
CC1=NN(c2ccc(C)c(C)c2)C(=O)/C1=N\Nc1cccc(-c2cccc(C(=O)O)c2)c1O.NCCO | – | – | – | half-life [6]: 2.31 h; solubility ([1]; buffer): < 1 µg/mL; half-life [3]: 1.29 h; CL/F [4]: 6.34 mL/min/kg; bioavailability [5]: 53.4%; Vdss (Canis familiaris): 0.228 L/kg; Vdss (Rattus norvegicus): 0.579 L/kg; CL/F [7]: 0.94 mL/min/kg; bioavailability [8]: 50%
O=C(Nc1nc(-c2cccc(C(F)(F)F)c2F)cs1)c1cnc(N2CCC(C(=O)O)CC2)c(C(F)(F)F)c1 | < 10 | – | 6.87 | –
N#Cc1cc(C(=O)Nc2nc(-c3cccc(C(F)(F)F)c3F)cs2)cnc1N1CCC(C(=O)O)CC1 | < 10 | – | 6.86 | –
O=C(Nc1nc(-c2cccc(C(F)(F)F)c2F)cs1)c1ccc(N2CCC(C(=O)O)C2)nc1 (centres undefined) | 167 (≈ 348 µM) | 1.21 | 5.48 | bioavailability [9]: < 3%; clearance [10]: 2.5 mL/min/kg; Papp [11]: 4.5 ×10⁻⁶ cm/s
O=C(Nc1nc(-c2cccc(C(F)(F)F)c2F)cs1)c1cnc(N2CCCC(C(=O)O)C2)c(Cl)c1 (centres undefined) | < 10 | 2.94 | 6.53 | –
O=C(Nc1nc(-c2cccc(C(F)(F)F)c2F)cs1)c1cnc(N2CCNC(C(=O)O)C2)c(Cl)c1 (centres undefined) | < 10 | 1.88 | 6.89 | –
NS(=O)(=O)C1CCN(c2ncc(C(=O)Nc3nc(-c4cccc(C(F)(F)F)c4F)cs3)cc2Cl)CC1 | < 10 | 4.86 | 7.47 | –
O=C(Nc1nc(-c2cccc(C(F)(F)F)c2F)cs1)c1cnc(N2CCC(c3nn[nH]n3)CC2)c(Cl)c1 | < 10 | 3.24 | 6.31 | –
NCCO.O=C(Nc1nc(-c2cccc(C(F)(F)F)c2F)cs1)c1ccc(N2CCC(C(=O)O)C2)nc1 (centres undefined) | > 2000 | – | – | –
C[C@@H](Nc1ncc(C(=O)Nc2nc(-c3cccc(C(F)(F)F)c3F)cs2)cc1Cl)C(=O)O | < 10 | 1.57 | 7.24 | –
CC1=NN(c2ccc(C)c(C)c2)C(=O)/C1=N\Nc1cccc(-c2cccc(C(=O)O)c2)c1O [ELTROMBOPAG] | – | – | – | solubility ([1]; buffer): 14000 µg/mL (≈ 31600 µM)

Now from value to compound, other results behind:

solubility [1, 16] [µg/mL] | logD [2] | pEC50 (Thrombopoietin receptor) | Structure (SMILES) | other results
< 10 | – | 8.00 | O=C(Nc1nc(-c2cccc(C(F)(F)F)c2F)cs1)c1cc(Cl)c(N2CCC(C(=O)O)CC2)c(Cl)c1 | –
15600 | – | – | NCCO.O=C(Nc1nc(-c2cccc(C(F)(F)F)c2F)cs1)c1cnc(N2CCC(C(=O)O)CC2)c(Cl)c1 | –
< 10 | – | 7.30 | O=C(Nc1nc(-c2cccc(C(F)(F)F)c2F)cs1)c1cnc(N2CCC(C(=O)O)CC2)c(Br)c1 | –
< 10 | – | 7.25 | O=C(Nc1nc(-c2cccc(C(F)(F)F)c2F)cs1)c1ccc(N2CCC(C(=O)O)CC2)c(Cl)c1 | –
< 10 | – | 6.60 | Cc1cc(C(=O)Nc2nc(-c3cccc(C(F)(F)F)c3F)cs2)cnc1N1CCC(C(=O)O)CC1 | –
< 10 | 4.92 | 7.55 | NC(=O)C1CCN(c2ncc(C(=O)Nc3nc(-c4cccc(C(F)(F)F)c4F)cs3)cc2Cl)CC1 | –
< 10 | – | < 6.00 | O=C(Nc1nc(-c2cccc(C(F)(F)F)c2F)cs1)c1cnc(N2CCC(C(=O)O)CC2)c(F)c1 | –
< 10 | 1.83 | 6.37 | O=C(Nc1nc(-c2cccc(C(F)(F)F)c2F)cs1)c1ccc(N2CCC(C(=O)O)CC2)nc1 | –
< 10 | 2.94 | 7.48 | O=C(Nc1nc(-c2cccc(C(F)(F)F)c2F)cs1)c1cnc(N2CCC(C(=O)O)CC2)c(Cl)c1 | fraction unbound [12]: < 0.005; fraction unbound [13]: < 0.005; fraction unbound [14]: < 0.005; fraction unbound [15]: < 0.005
